The values that follow come from PMC4422947 (Acta Pharmacologica Sinica, 2015).

The target in one series is T1, CYP2B6 (Homo sapiens, UniProt P20813).
T1 sequence (P20813 1-491): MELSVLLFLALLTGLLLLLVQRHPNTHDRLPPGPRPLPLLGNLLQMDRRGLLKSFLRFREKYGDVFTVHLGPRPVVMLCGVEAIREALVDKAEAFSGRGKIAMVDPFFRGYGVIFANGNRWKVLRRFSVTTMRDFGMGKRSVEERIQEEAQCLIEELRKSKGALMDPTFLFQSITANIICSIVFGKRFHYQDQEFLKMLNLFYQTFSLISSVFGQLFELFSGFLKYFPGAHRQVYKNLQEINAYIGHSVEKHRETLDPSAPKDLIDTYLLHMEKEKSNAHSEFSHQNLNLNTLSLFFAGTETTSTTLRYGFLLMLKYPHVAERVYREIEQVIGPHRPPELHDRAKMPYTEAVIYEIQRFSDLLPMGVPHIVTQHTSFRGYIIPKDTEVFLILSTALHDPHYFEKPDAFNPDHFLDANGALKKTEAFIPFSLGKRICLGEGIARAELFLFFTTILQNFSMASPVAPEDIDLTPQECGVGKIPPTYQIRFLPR
The experiment in a line: Inhibition of cDNA-expressed human CYP2B6. It is filed as in vitro ADME. Particulars: CYP2B6, 7-ethoxy-4-trifluoromethylcoumarin O-deethylation.

In a further series the target is T2, CYP2A6 (Homo sapiens, UniProt P11509).
T2 sequence (P11509 1-494): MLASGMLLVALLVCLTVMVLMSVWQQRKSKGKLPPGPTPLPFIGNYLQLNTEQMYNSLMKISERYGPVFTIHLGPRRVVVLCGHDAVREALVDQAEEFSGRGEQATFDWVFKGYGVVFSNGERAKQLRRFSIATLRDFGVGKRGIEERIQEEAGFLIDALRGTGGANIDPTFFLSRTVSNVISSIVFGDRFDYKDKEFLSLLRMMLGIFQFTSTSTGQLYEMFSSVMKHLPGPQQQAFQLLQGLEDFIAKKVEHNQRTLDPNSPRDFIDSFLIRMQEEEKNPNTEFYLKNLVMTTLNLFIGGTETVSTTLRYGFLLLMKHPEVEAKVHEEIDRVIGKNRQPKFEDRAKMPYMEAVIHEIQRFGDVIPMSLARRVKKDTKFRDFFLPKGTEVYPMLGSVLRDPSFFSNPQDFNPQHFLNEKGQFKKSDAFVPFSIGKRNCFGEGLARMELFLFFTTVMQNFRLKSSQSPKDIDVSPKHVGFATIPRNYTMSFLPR
The series is described as follows: Inhibition of cDNA-expressed human CYP2A6. It is filed as in vitro ADME. Particulars: CYP2A6, coumarin 7-hydroxylation.

Series [1] is classed as in vivo, rat. Particulars: after iv or po administration of tanshinol; data not shown.

Broadly, the IC50 is the concentration that gives 50% inhibition. For `N[C@@H]1C[C@H]1c1ccccc1` (racemic) [tranylcypromine], the figures for the half-inhibitory concentration (IC50) on CYP2B6 and against CYP2A6 were 5900 nM and 70 nM, respectively.

For `COC(=O)C(O)Cc1ccc(O)c(O)c1` (stereo not shown) [tanshinol methyl ester], in series [1], the “Detection in rat samples” value is given as “not detected”.

On to 8-O-methyltanshinol, for which, in series [1], the “Detection in rat samples” value is “not detected”.
